Legend:
[1] = biological target: T1, FLT3 (Homo sapiens, UniProt P36888); assay: Binding constant (Kd) measurement, phage-displayed kinase competition binding assay; conditions: for Binding Assay: FLT3(DKIN) / Kd: FLT3(DKIN) construct; for Binding Assay: FLT3(JMminus): FLT3(JMminus) construct
T1 construct: FLT3(DKIN); made in house
T1 sequence (P36888 610-943 limits assumed): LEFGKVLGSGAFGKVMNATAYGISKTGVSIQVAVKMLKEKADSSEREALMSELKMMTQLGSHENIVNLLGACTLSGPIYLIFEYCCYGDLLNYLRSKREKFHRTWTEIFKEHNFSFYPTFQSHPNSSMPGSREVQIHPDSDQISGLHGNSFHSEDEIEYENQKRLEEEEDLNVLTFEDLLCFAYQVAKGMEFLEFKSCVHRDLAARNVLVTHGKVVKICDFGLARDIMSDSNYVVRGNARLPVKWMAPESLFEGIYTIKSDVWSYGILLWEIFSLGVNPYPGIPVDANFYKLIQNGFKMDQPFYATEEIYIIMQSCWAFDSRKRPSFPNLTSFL
Description: Binding Constant (Kd) Measurements for Small-Molecule-Kinase Interactions
The term “ND” represents non-determined values.

[2] = system: MV4,11 cells; assay: FLT3 assay using MV4,11 cells (cellular proliferation, MTS); type: cell-based, human; conditions: cell assay code CS0001; for IC50: Homo sapiens, MV4-11
Protocol: The ability of FLT3 kinase inhibitors to inhibit cellular proliferation was also examined. MV4:11 was a cell line derived from a patient with acute myelogenous leukemia.
FLT3 Assay Using MV4,11 Cells
MV4,11 cells were grown in an incubator @ 37° C. in 5% CO2 in Medium 2 (RPMI, 10% FBS, 4 mM glutamine, Penn/Strep). The cells were counted daily and the cell density was kept between 1e5 and 8e5 cells/ml.
Day One: Enough cells were harvested for experiments to be conducted in 50 ml conical tubes. The harvested cells were spun at 500 g for 5 min at 4° C., the supernatant was then aspirated and the cells were resuspended in the starting volume of 1×PBS. The cells were again spun at 500 g for 5 min at 4° C. and the supernatant again aspirated. The cells were then resuspended in medium 3 (DMEM w/ glut, 10% FBS, Penn/Strep) to a density of 4e5 cells/ml and incubated (37° C. in 5% CO2 O/N.
Day Two: The cells were counted and enough medium 3 was added to decrease density to 2e5 cells/ml. 50 ul (10,000 cells) was aliquoted into each well of a 96 well optical plate using multichannel pipetman. The compound plate was then set up by aliquoting 3 μl of negative control (DMSO) into column 1 of a 96 well 300 ul polypropylene plate, aliquoting 3 μt of positive control (10 mM AB20121) into column 12 of plate, and aliquoting 3 μl of appropriate compounds from serial dilutions into columns 2-11. To each well, 150 μl of Medium 3 was added and 50 μl of compound/medium mixture from compound plate into rows of optical plate in duplicate. The cells were then incubated @ 37° C. in 5% CO2 for 3 days.
Day Five: MTS was thawed in a H2O bath. 20 μl of MTS was added to each well of optical plate and the cells were incubated (37° C. in 5% CO2 for 2 hours. The plate was then placed on a plate shaker for 30 seconds on high speed.

SMILES: COC(=O)c1cccc(COc2ccc(NC(=O)Nc3cc(C(C)(C)C)on3)cc2)c1 [Compound G7]
- Binding Assay: FLT3(DKIN) [1]: + + + +
- Cell Assay: CS0001:IC50 [2]: + + +

SMILES: Cc1cccnc1-c1noc(-c2ccc(NC(=O)Nc3cc(C(C)(C)C)on3)cc2)n1 [Compound P4]
- Binding Assay: FLT3(DKIN) [1]: + + + +
- Cell Assay: CS0001:IC50 [2]: + + + +

SMILES: Cc1nc(C(=O)Nc2ccc(NC(=O)Nc3cc(C(C)(C)C)on3)cc2)c(C(F)(F)F)o1 [Compound N55]
- Binding Assay: FLT3(DKIN) [1]: + + + +
- Cell Assay: CS0001:IC50 [2]: + + +

SMILES: Cc1[nH]c(C(=O)Nc2ccc(NC(=O)Nc3cc(C(C)(C)C)on3)cc2)c(C)c1CCC(=O)O [Compound N39]
- Binding Assay: FLT3(DKIN) [1]: + + + +
- Cell Assay: CS0001:IC50 [2]: + +

SMILES: CC(C)(C)c1cc(NC(=O)Nc2ccc(NC(=O)c3ccc(OC(F)(F)F)cc3)cc2)no1 [Compound N30]
- Binding Assay: FLT3(DKIN) [1]: + +
- Cell Assay: CS0001:IC50 [2]: + +

SMILES: CNC(=O)c1ccc(NC(=O)Nc2cc(C(C)(C)C)on2)cc1 [Compound N85]
- Binding Assay: FLT3(DKIN) [1]: + + + +
- Cell Assay: CS0001:IC50 [2]: + + +

SMILES: CC(=O)c1c(NC(=O)Nc2ccc(Cl)c(Cl)c2)sc2c1CCCC2 [Compound Z56]
- Kd [1]: > 10 µM
- Cell Assay: CS0001:IC50 [2]: + + +

SMILES: CC(C)(C)c1cc(NC(=O)Nc2ccc(NC(=O)c3ccc(Br)cc3)cc2)no1 [Compound N27]
- Binding Assay: FLT3(DKIN) [1]: + +
- Cell Assay: CS0001:IC50 [2]: + +

SMILES: CC(C)(C)c1cc(NC(=O)Nc2ccc(NC(=O)c3ncccc3C(N)=O)cc2)no1 [Compound N6]
- Binding Assay: FLT3(DKIN) [1]: + + +
- Cell Assay: CS0001:IC50 [2]: + +

SMILES: CC(C)(C)c1cc(NC(=O)Nc2ccc(NC(=O)c3sccc3CCc3cccc(C(F)(F)F)c3)cc2)no1 [Compound N183]
- Binding Assay: FLT3(JMminus) [1]: + + + +
- Cell Assay: CS0001:IC50 [2]: + +

SMILES: COc1ccc(NC(=O)Nc2cc(C(C)(C)C)on2)cc1OC [Compound A55]
- Binding Assay: FLT3(JMminus) [1]: + +
- IC50 [2]: > 10 µM

SMILES: Cn1nc(-c2ccccc2)c(C(=O)Nc2ccc(NC(=O)Nc3cc(C(C)(C)C)on3)cc2)c1Cl [Compound N11]
- Binding Assay: FLT3(DKIN) [1]: + +
- Cell Assay: CS0001:IC50 [2]: + +

SMILES: CC(C)(C)c1cc(C(=O)Nc2ccc(NC(=O)Nc3cc(C(C)(C)C)on3)cc2)n(-c2ccccc2)n1 [Compound N78]
- Binding Assay: FLT3(JMminus) [1]: + + +
- Cell Assay: CS0001:IC50 [2]: + + +

SMILES: CC(C)(C)c1cc(NC(=O)Nc2ccncc2)no1 [Compound A53]
- Binding Assay: FLT3(DKIN) [1]: + +
- Cell Assay: CS0001:IC50 [2]: + +

SMILES: Cc1sc(NC(=O)Nc2ccc(Cl)cc2)c(C(N)=O)c1C [Compound Z58]
- Kd [1]: > 10 µM
- Cell Assay: CS0001:IC50 [2]: + +

SMILES: CC(C)Oc1ccc(NC(=O)Nc2cc(C(C)(C)C)no2)cc1 [Compound G33]
- Binding Assay: FLT3(DKIN) [1]: + + + +
- Cell Assay: CS0001:IC50 [2]: + + +

SMILES: COc1ccc(C(=O)c2c[nH]c(C(=O)Nc3ccc(NC(=O)Nc4cc(C(C)(C)C)on4)cc3)c2)cc1 [Compound N177]
- Binding Assay: FLT3(JMminus) [1]: + + +
- Cell Assay: CS0001:IC50 [2]: + +

SMILES: CC(C)(C)c1cc(NC(=O)Nc2ccc(NC(=O)c3cccc4nc5cc(O)cc(O)c5cc34)cc2)no1 [Compound N139]
- Binding Assay: FLT3(DKIN) [1]: + + +
- Cell Assay: CS0001:IC50 [2]: + + +

SMILES: Cc1ncccc1C(=O)Nc1ccc(NC(=O)Nc2cc(C(C)(C)C)on2)cc1 [Compound N145]
- Binding Assay: FLT3(DKIN) [1]: + + + +
- Cell Assay: CS0001:IC50 [2]: + + +

SMILES: CC(C)(C)c1cc(NC(=O)Nc2ccc(NC(=O)c3cc(O)c4cccc(O)c4n3)cc2)no1 [Compound N176]
- Binding Assay: FLT3(JMminus) [1]: + + +
- IC50 [2]: > 10 µM

SMILES: Cc1cc(NC(=O)[C@](C)(O)CSc2ccc(F)cc2)ccc1NC(=O)Nc1cc(C(C)(C)C)on1 [Compound N170]
- Binding Assay: FLT3(JMminus) [1]: + + + +
- Cell Assay: CS0001:IC50 [2]: + + +

SMILES: CC(C)(C)c1cc(NC(=O)Nc2ccc(NC(=O)c3ncc[nH]3)cc2)no1 [Compound N13]
- Binding Assay: FLT3(DKIN) [1]: + + + +
- Cell Assay: CS0001:IC50 [2]: + + + +

SMILES: CC(C)(C)c1cc(NC(=O)Nc2ccc(NC(=O)Cc3noc4ccccc34)cc2)no1 [Compound N80]
- Binding Assay: FLT3(JMminus) [1]: + + +
- Cell Assay: CS0001:IC50 [2]: + + +

SMILES: CC(C)(C)c1cc(NC(=O)Nc2ccc(NC(=O)c3cccc(Br)c3)cc2)no1 [Compound N24]
- Binding Assay: FLT3(DKIN) [1]: + + +
- Cell Assay: CS0001:IC50 [2]: + +

SMILES: Cn1nc(C(C)(C)C)cc1NC(=O)Nc1ccc(OCc2ccccc2)cc1 [Compound H2]
- Binding Assay: FLT3(DKIN) [1]: + + + +
- Cell Assay: CS0001:IC50 [2]: + + + +

SMILES: COC(=O)c1ccc(C(=O)Nc2ccc(NC(=O)Nc3cc(C(C)(C)C)on3)cc2)nc1 [Compound N12]
- Binding Assay: FLT3(DKIN) [1]: + + + +
- Cell Assay: CS0001:IC50 [2]: + + +

SMILES: Cc1ccc(COc2ccc(NC(=O)Nc3cc(C(C)(C)C)on3)cc2)cc1 [Compound G15]
- Binding Assay: FLT3(DKIN) [1]: + + + +
- Cell Assay: CS0001:IC50 [2]: + + + +

SMILES: CC(C)(C)c1cc(NC(=O)Nc2ccc(NC(=O)CC(N)c3ccccc3Cl)cc2)no1 (stereo not drawn) [Compound N44]
- Binding Assay: FLT3(DKIN) [1]: + +
- Cell Assay: CS0001:IC50 [2]: + +

SMILES: CC(C)(C)c1noc(-c2ccc(NC(=S)Nc3cc(C(C)(C)C)on3)cc2)n1 [Compound P6]
- Binding Assay: FLT3(DKIN) [1]: + +
- Cell Assay: CS0001:IC50 [2]: + + +

SMILES: CC(C)(C)c1cc(NC(=O)Nc2ccc(NC(=O)c3csnn3)cc2)no1 [Compound N14]
- Binding Assay: FLT3(DKIN) [1]: + + + +
- Cell Assay: CS0001:IC50 [2]: + + +

SMILES: Cc1ccc(-n2nc(C(C)(C)C)cc2NC(=O)Nc2ccc(OCc3ccccc3)cc2)cc1 [Compound H5]
- Binding Assay: FLT3(DKIN) [1]: + + + +

SMILES: O=C(Nc1ccc(Cl)cc1)Nc1cc(C(F)(F)F)cc(Cl)n1 [Compound Z76]
- Binding Assay: FLT3(DKIN) [1]: + + +

SMILES: O=C(Nc1ccc(Cl)cc1)Nc1ccc(-n2nc(Br)c(Br)c2Br)cc1 [Compound Z49]
- Binding Assay: FLT3(DKIN) [1]: + + +

SMILES: COc1cccc(CNC(=O)Nc2cc(C(C)(C)C)on2)c1 [Compound B3]
- Binding Assay: FLT3(DKIN) [1]: + + + +

SMILES: CC(C)(C)c1cc(NC(=O)Nc2ccc(Cl)cc2Cl)no1 [Compound A7]
- Binding Assay: FLT3(DKIN) [1]: + + +

SMILES: CC(C)(C)c1cc(NC(=O)Nc2ccc(OCC(O)CO)cc2)no1 (stereo not drawn) [Compound G28]
- Binding Assay: FLT3(DKIN) [1]: + + + +

SMILES: Cc1ccc(NC(=O)Nc2cc(C(C)(C)C)on2)cc1 [Compound A33]
- Binding Assay: FLT3(DKIN) [1]: + + + +

SMILES: CC(C)(C)c1cc(NC(=O)Nc2ccc(O)cc2)no1 [Compound A31]
- Binding Assay: FLT3(DKIN) [1]: + + +

SMILES: CC(C)(C)c1cc(NC(=O)Nc2ccc(F)cc2)no1 [Compound A47]
- Binding Assay: FLT3(DKIN) [1]: + + +

Source: US20050267182A1, “Urea derivatives as FLT-3 modulators” (Ambit Biosciences Corporation, priority 2003, published 2005)
